Assay results taken from the NIST ThermoML archive (doi:10.1021/je501126j).

Key:
[1] = 101 kPa, Liquid, Vibrating tube method
[2] = wn = mass fraction of the nth substance listed; conditions: 101 kPa, Liquid, Vibrating tube method

CC(O)CN(C)C (stereo not drawn) [1-(dimethylamino)-2-propanol]
[1]
Conditions	mass density [kg/m3]
298.15 K	845.2
303.15 K	840.4
308.15 K	835.6
313.15 K	830.7
318.15 K	825.9
323.15 K	820.9

CC(O)CN(C)C (stereo not drawn) [1-(dimethylamino)-2-propanol] + O
mass density [kg/m3], [2]
Conditions	298.15 K	303.15 K	308.15 K	313.15 K	318.15 K	323.15 K
w1 = 0.1	992.5	990.8	988.9	986.7	984.2	982.1
w1 = 0.2	989.5	987.2	984.6	981.9	979	976
w1 = 0.3	984.6	981.4	978	974.5	970.9	967.2
w1 = 0.4	976.7	972.8	968.7	964.6	960.5	956.3
w1 = 0.5	967.2	962.9	958.5	954.1	949.4	944.8
w1 = 0.55	958.7	954.2	949.7	945	940.4	935.6
w1 = 0.6	948.9	944.2	939.6	934.8	930	925.2
w1 = 0.71	929.1	924.3	919.5	914.7	909.8	904.9
w1 = 0.81	905.6	900.9	896	891.1	886.2	881.2
w1 = 0.91	876.5	871.1	866.9	862	857.1	852.1
w1 = 0.96	860.5	855.7	850.8	846	841	836.1
w1 = 1	845.2	840.4	835.6	830.7	825.9	820.9
